From PubChem BioAssay AID1963984 (Molecular Pharmacology Branch, DTP, NCI, 2024) come the findings set out here.

Molecules are shown by their SMILES.
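Also: spheroids exposed to agents for seven days before readout; percent viability relative to DMSO vehicle control taken as 100%.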

For one assay, the system named is 233499-124-R-J3-PDC spheroids with HUVEC/MSC, viability. As to the kind of experiment: Anticancer human tumor 233499-124-R-J3-PDC patient-derived colon adenocarcinoma cell line growth inhibition [PI3K]. The note with it: second compound 3.16 µM; first compound 0.1 µM; active compounds read low. The gist of the method: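 Targeted small molecules plus PI3K inhibitors, half-log dose series from Cmax (default top 10 microM), were applied to heterotypic spheroids of cancer cells with HUVEC and MSCs. Viability indicated growth inhibition.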
In the case of `CC(Cn1ccc(-c2ccc(C#N)c(Cl)c2)n1)NC(=O)c1cc(C(C)O)[nH]n1` (configuration not stated) + CC(Nc1ncnc2nc[nH]c12)c1cc2cccc(Cl)c2c(=O)n1-c1ccccc1, the viability, T/C is 96.5%.
On to `CC1(C)CCC(Nc2ncc(C(F)(F)F)c(-c3c[nH]c4c(P(C)(C)=O)c(C#N)ccc34)n2)CN1` (configuration not stated) + CC(Nc1ncnc2nc[nH]c12)c1cc2cccc(Cl)c2c(=O)n1-c1ccccc1, for which the viability, T/C is 67.2%.

Staying with this assay, now noted: second compound 3.16 µM; first compound 0.316 µM; active compounds read low.
Turning to `C#Cc1c(F)ccc2cc(O)cc(-c3ncc4c(N5CC6CCC(C5)N6)nc(OCC56CCCN5CC(F)C6)nc4c3F)c12` (configuration not stated) + CC(Nc1ncnc2nc[nH]c12)c1cc2cccc(Cl)c2c(=O)n1-c1ccccc1, the viability, T/C is 101%.
Same read-out and setting: next, `C=CC(=O)N1CCN(c2nc(=O)n(-c3c(C)ccnc3C(C)C)c3nc(-c4c(O)cccc4F)c(F)cc23)C(C)C1` (configuration not stated) + CC(Nc1ncnc2nc[nH]c12)c1cc2cccc(Cl)c2c(=O)n1-c1ccccc1: 78.3%; `CC(Cn1ccc(-c2ccc(C#N)c(Cl)c2)n1)NC(=O)c1cc(C(C)O)[nH]n1` (configuration not stated) + CC(Nc1ncnc2nc[nH]c12)c1cc2cccc(Cl)c2c(=O)n1-c1ccccc1: 78.1%.
Still for that read-out and setting: with `CC1(C)CCC(Nc2ncc(C(F)(F)F)c(-c3c[nH]c4c(P(C)(C)=O)c(C#N)ccc34)n2)CN1` (configuration not stated) + CC(Nc1ncnc2nc[nH]c12)c1cc2cccc(Cl)c2c(=O)n1-c1ccccc1 the figure was 46.8%.

The same assay, now with this note: second compound 3.16 µM; first compound 1 µM; active compounds read low.
Regarding `C#Cc1c(F)ccc2cc(O)cc(-c3ncc4c(N5CC6CCC(C5)N6)nc(OCC56CCCN5CC(F)C6)nc4c3F)c12` (configuration not stated) + CC(Nc1ncnc2nc[nH]c12)c1cc2cccc(Cl)c2c(=O)n1-c1ccccc1, the viability, T/C was 77.9%.
Still for that read-out and setting: with `C=CC(=O)N1CCN(c2nc(=O)n(-c3c(C)ccnc3C(C)C)c3nc(-c4c(O)cccc4F)c(F)cc23)C(C)C1` (configuration not stated) + CC(Nc1ncnc2nc[nH]c12)c1cc2cccc(Cl)c2c(=O)n1-c1ccccc1 the figure was 79.7%; with `CC(Cn1ccc(-c2ccc(C#N)c(Cl)c2)n1)NC(=O)c1cc(C(C)O)[nH]n1` (configuration not stated) + CC(Nc1ncnc2nc[nH]c12)c1cc2cccc(Cl)c2c(=O)n1-c1ccccc1, 88.7%.
On the same count and under the same terms, with `CC1(C)CCC(Nc2ncc(C(F)(F)F)c(-c3c[nH]c4c(P(C)(C)=O)c(C#N)ccc34)n2)CN1` (configuration not stated) + CC(Nc1ncnc2nc[nH]c12)c1cc2cccc(Cl)c2c(=O)n1-c1ccccc1 the figure was 27.5%.

The assay is the same for the next values; noted with them: second compound 3.16 µM; first compound 3.16 µM; active compounds read low.
For the molecule `C#Cc1c(F)ccc2cc(O)cc(-c3ncc4c(N5CC6CCC(C5)N6)nc(OCC56CCCN5CC(F)C6)nc4c3F)c12` (configuration not stated) + CC(Nc1ncnc2nc[nH]c12)c1cc2cccc(Cl)c2c(=O)n1-c1ccccc1, the viability, T/C was 87.5%.
Same read-out and setting: next, `C=CC(=O)N1CCN(c2nc(=O)n(-c3c(C)ccnc3C(C)C)c3nc(-c4c(O)cccc4F)c(F)cc23)C(C)C1` (configuration not stated) + CC(Nc1ncnc2nc[nH]c12)c1cc2cccc(Cl)c2c(=O)n1-c1ccccc1: 71.6%; `CC(Cn1ccc(-c2ccc(C#N)c(Cl)c2)n1)NC(=O)c1cc(C(C)O)[nH]n1` (configuration not stated) + CC(Nc1ncnc2nc[nH]c12)c1cc2cccc(Cl)c2c(=O)n1-c1ccccc1: 78.3%; `CC1(C)CCC(Nc2ncc(C(F)(F)F)c(-c3c[nH]c4c(P(C)(C)=O)c(C#N)ccc34)n2)CN1` (configuration not stated) + CC(Nc1ncnc2nc[nH]c12)c1cc2cccc(Cl)c2c(=O)n1-c1ccccc1: 23.2%.

The assay is the same for the next values; noted with them: second compound 3.16 µM; first compound 10 µM; active compounds read low.
As for `C#Cc1c(F)ccc2cc(O)cc(-c3ncc4c(N5CC6CCC(C5)N6)nc(OCC56CCCN5CC(F)C6)nc4c3F)c12` (configuration not stated) + CC(Nc1ncnc2nc[nH]c12)c1cc2cccc(Cl)c2c(=O)n1-c1ccccc1, the viability, T/C is 55.9%.
As for `C=CC(=O)N1CCN(c2nc(=O)n(-c3c(C)ccnc3C(C)C)c3nc(-c4c(O)cccc4F)c(F)cc23)C(C)C1` (configuration not stated) + CC(Nc1ncnc2nc[nH]c12)c1cc2cccc(Cl)c2c(=O)n1-c1ccccc1, the viability, T/C is 89%.
On the same count and under the same terms, next, `CC(Cn1ccc(-c2ccc(C#N)c(Cl)c2)n1)NC(=O)c1cc(C(C)O)[nH]n1` (configuration not stated) + CC(Nc1ncnc2nc[nH]c12)c1cc2cccc(Cl)c2c(=O)n1-c1ccccc1: 86.5%; `CC1(C)CCC(Nc2ncc(C(F)(F)F)c(-c3c[nH]c4c(P(C)(C)=O)c(C#N)ccc34)n2)CN1` (configuration not stated) + CC(Nc1ncnc2nc[nH]c12)c1cc2cccc(Cl)c2c(=O)n1-c1ccccc1: 4.38%.

The assay is the same for the next values; noted with them: second compound 10 µM; first compound 0.0316 µM; active compounds read low.
For `C#Cc1c(F)ccc2cc(O)cc(-c3ncc4c(N5CC6CCC(C5)N6)nc(OCC56CCCN5CC(F)C6)nc4c3F)c12` (configuration not stated) + CC(Nc1ncnc2nc[nH]c12)c1cc2cccc(Cl)c2c(=O)n1-c1ccccc1, the viability, T/C was 92.8%.
Same read-out and setting: with `C=CC(=O)N1CCN(c2nc(=O)n(-c3c(C)ccnc3C(C)C)c3nc(-c4c(O)cccc4F)c(F)cc23)C(C)C1` (configuration not stated) + CC(Nc1ncnc2nc[nH]c12)c1cc2cccc(Cl)c2c(=O)n1-c1ccccc1 the figure was 80.9%; with `CC(Cn1ccc(-c2ccc(C#N)c(Cl)c2)n1)NC(=O)c1cc(C(C)O)[nH]n1` (configuration not stated) + CC(Nc1ncnc2nc[nH]c12)c1cc2cccc(Cl)c2c(=O)n1-c1ccccc1, 86.1%; with `CC1(C)CCC(Nc2ncc(C(F)(F)F)c(-c3c[nH]c4c(P(C)(C)=O)c(C#N)ccc34)n2)CN1` (configuration not stated) + CC(Nc1ncnc2nc[nH]c12)c1cc2cccc(Cl)c2c(=O)n1-c1ccccc1, 52.3%.

The same assay, now with this note: second compound 10 µM; first compound 0.1 µM; active compounds read low.
With `C#Cc1c(F)ccc2cc(O)cc(-c3ncc4c(N5CC6CCC(C5)N6)nc(OCC56CCCN5CC(F)C6)nc4c3F)c12` (configuration not stated) + CC(Nc1ncnc2nc[nH]c12)c1cc2cccc(Cl)c2c(=O)n1-c1ccccc1, the viability, T/C is 89.4%.
On the same count and under the same terms, with `C=CC(=O)N1CCN(c2nc(=O)n(-c3c(C)ccnc3C(C)C)c3nc(-c4c(O)cccc4F)c(F)cc23)C(C)C1` (configuration not stated) + CC(Nc1ncnc2nc[nH]c12)c1cc2cccc(Cl)c2c(=O)n1-c1ccccc1 the figure was 82.5%.
Consider `CC(Cn1ccc(-c2ccc(C#N)c(Cl)c2)n1)NC(=O)c1cc(C(C)O)[nH]n1` (configuration not stated) + CC(Nc1ncnc2nc[nH]c12)c1cc2cccc(Cl)c2c(=O)n1-c1ccccc1, for which the viability, T/C was 96.3%.
Still for that read-out and setting: with `CC1(C)CCC(Nc2ncc(C(F)(F)F)c(-c3c[nH]c4c(P(C)(C)=O)c(C#N)ccc34)n2)CN1` (configuration not stated) + CC(Nc1ncnc2nc[nH]c12)c1cc2cccc(Cl)c2c(=O)n1-c1ccccc1 the figure was 36.4%.

Still in this assay, the particulars now being: second compound 10 µM; first compound 0.316 µM; active compounds read low.
Turning to `C#Cc1c(F)ccc2cc(O)cc(-c3ncc4c(N5CC6CCC(C5)N6)nc(OCC56CCCN5CC(F)C6)nc4c3F)c12` (configuration not stated) + CC(Nc1ncnc2nc[nH]c12)c1cc2cccc(Cl)c2c(=O)n1-c1ccccc1, the viability, T/C was 87.5%.
The same measure, in the same setting: next, `C=CC(=O)N1CCN(c2nc(=O)n(-c3c(C)ccnc3C(C)C)c3nc(-c4c(O)cccc4F)c(F)cc23)C(C)C1` (configuration not stated) + CC(Nc1ncnc2nc[nH]c12)c1cc2cccc(Cl)c2c(=O)n1-c1ccccc1: 81.8%; `CC(Cn1ccc(-c2ccc(C#N)c(Cl)c2)n1)NC(=O)c1cc(C(C)O)[nH]n1` (configuration not stated) + CC(Nc1ncnc2nc[nH]c12)c1cc2cccc(Cl)c2c(=O)n1-c1ccccc1: 83.2%.
On the same count and under the same terms, next, `CC1(C)CCC(Nc2ncc(C(F)(F)F)c(-c3c[nH]c4c(P(C)(C)=O)c(C#N)ccc34)n2)CN1` (configuration not stated) + CC(Nc1ncnc2nc[nH]c12)c1cc2cccc(Cl)c2c(=O)n1-c1ccccc1: 49.6%.

The same assay, now with this note: second compound 10 µM; first compound 1 µM; active compounds read low.
Consider `C#Cc1c(F)ccc2cc(O)cc(-c3ncc4c(N5CC6CCC(C5)N6)nc(OCC56CCCN5CC(F)C6)nc4c3F)c12` (configuration not stated) + CC(Nc1ncnc2nc[nH]c12)c1cc2cccc(Cl)c2c(=O)n1-c1ccccc1, for which the viability, T/C is 84.7%.
Same read-out and setting: next, `C=CC(=O)N1CCN(c2nc(=O)n(-c3c(C)ccnc3C(C)C)c3nc(-c4c(O)cccc4F)c(F)cc23)C(C)C1` (configuration not stated) + CC(Nc1ncnc2nc[nH]c12)c1cc2cccc(Cl)c2c(=O)n1-c1ccccc1: 97.3%; `CC(Cn1ccc(-c2ccc(C#N)c(Cl)c2)n1)NC(=O)c1cc(C(C)O)[nH]n1` (configuration not stated) + CC(Nc1ncnc2nc[nH]c12)c1cc2cccc(Cl)c2c(=O)n1-c1ccccc1: 102%; `CC1(C)CCC(Nc2ncc(C(F)(F)F)c(-c3c[nH]c4c(P(C)(C)=O)c(C#N)ccc34)n2)CN1` (configuration not stated) + CC(Nc1ncnc2nc[nH]c12)c1cc2cccc(Cl)c2c(=O)n1-c1ccccc1: 20.7%.

Staying with this assay, now noted: second compound 10 µM; first compound 3.16 µM; active compounds read low.
`C#Cc1c(F)ccc2cc(O)cc(-c3ncc4c(N5CC6CCC(C5)N6)nc(OCC56CCCN5CC(F)C6)nc4c3F)c12` (configuration not stated) + CC(Nc1ncnc2nc[nH]c12)c1cc2cccc(Cl)c2c(=O)n1-c1ccccc1: the viability, T/C is 108%.
The same measure, in the same setting: next, `C=CC(=O)N1CCN(c2nc(=O)n(-c3c(C)ccnc3C(C)C)c3nc(-c4c(O)cccc4F)c(F)cc23)C(C)C1` (configuration not stated) + CC(Nc1ncnc2nc[nH]c12)c1cc2cccc(Cl)c2c(=O)n1-c1ccccc1: 69.4%; `CC(Cn1ccc(-c2ccc(C#N)c(Cl)c2)n1)NC(=O)c1cc(C(C)O)[nH]n1` (configuration not stated) + CC(Nc1ncnc2nc[nH]c12)c1cc2cccc(Cl)c2c(=O)n1-c1ccccc1: 75.5%; `CC1(C)CCC(Nc2ncc(C(F)(F)F)c(-c3c[nH]c4c(P(C)(C)=O)c(C#N)ccc34)n2)CN1` (configuration not stated) + CC(Nc1ncnc2nc[nH]c12)c1cc2cccc(Cl)c2c(=O)n1-c1ccccc1: 38.8%.

The assay is the same for the next values; noted with them: second compound 10 µM; first compound 10 µM; active compounds read low.
Consider `C#Cc1c(F)ccc2cc(O)cc(-c3ncc4c(N5CC6CCC(C5)N6)nc(OCC56CCCN5CC(F)C6)nc4c3F)c12` (configuration not stated) + CC(Nc1ncnc2nc[nH]c12)c1cc2cccc(Cl)c2c(=O)n1-c1ccccc1, for which the viability, T/C was 84.7%.
For the molecule `C=CC(=O)N1CCN(c2nc(=O)n(-c3c(C)ccnc3C(C)C)c3nc(-c4c(O)cccc4F)c(F)cc23)C(C)C1` (configuration not stated) + CC(Nc1ncnc2nc[nH]c12)c1cc2cccc(Cl)c2c(=O)n1-c1ccccc1, the viability, T/C was 88.3%.
Same read-out and setting: with `CC(Cn1ccc(-c2ccc(C#N)c(Cl)c2)n1)NC(=O)c1cc(C(C)O)[nH]n1` (configuration not stated) + CC(Nc1ncnc2nc[nH]c12)c1cc2cccc(Cl)c2c(=O)n1-c1ccccc1 the figure was 93.3%.
The same measure, in the same setting: with `CC1(C)CCC(Nc2ncc(C(F)(F)F)c(-c3c[nH]c4c(P(C)(C)=O)c(C#N)ccc34)n2)CN1` (configuration not stated) + CC(Nc1ncnc2nc[nH]c12)c1cc2cccc(Cl)c2c(=O)n1-c1ccccc1 the figure was 6.16%.

The term viability, T/C denotes the ratio of treated to control.
